US20240016884A1, “WS635 USES THEREOF IN MEDICINE” (WATERSTONE PHARMACEUTICALS (WUHAN) CO., LTD., priority 2021, published 2024)

What was measured:
[1] = system: anesthesia/surgery-induced delirium-like behavior in mice; test: delirium-like behaviors overall (composite Z score) after anesthesia/surgery; format: in vivo
Source text: (§1) Mice Anesthesia and Surgery. 18-month-old C57BL/J6 female mice were adaptive in lab for 3 days. The mice were randomly assigned to the anesthesia/surgery group or control group by weight. […] Specifically, we anesthetized each of the mice using 1.4% isoflurane in 100% oxygen in a transparent acrylic chamber. Fifteen minutes after the induction, we moved the mouse out of the chamber. Isoflurane anesthesia was maintained via a cone device, and one 16-gauge needle was inserted into the cone near the nose of the mouse to monitor the concentration of isoflurane. We made a longitudinal midline incision from the xiphoid to the 0.5 centimeter proximal pubic symphysis on the skin, abdominal muscles and peritoneum. We then sutured the incision layer by layer with 5-0 Vicryl thread.
(§2) WS635 Treatment. WS635 was dissolved in corn oil with 10% DMSO, each of the mice will be injected with WS635 solution in the dose of 40 mg/kg for 0.2 ml through IP at 30 minutes before control condition or anesthesia/surgery by using 27G×½ needles. The mice in control group received 0.2 ml of corn oil with 10% DMSO.
Behaviors Tests. […] We will perform the behavior tests in groups of 3 mice and finished them within 50 minutes, which mimics the certain features of clinical evaluation of delirium in patients. […]

[2] = cited from earlier work
cytochrome P450 1A2 = settings: metabolic studies; cited from earlier work
P-glycoprotein = P-glycoprotein (Homo sapiens, UniProt P08183); settings: cited from earlier work
Sequence of P-glycoprotein (P08183 whole entry): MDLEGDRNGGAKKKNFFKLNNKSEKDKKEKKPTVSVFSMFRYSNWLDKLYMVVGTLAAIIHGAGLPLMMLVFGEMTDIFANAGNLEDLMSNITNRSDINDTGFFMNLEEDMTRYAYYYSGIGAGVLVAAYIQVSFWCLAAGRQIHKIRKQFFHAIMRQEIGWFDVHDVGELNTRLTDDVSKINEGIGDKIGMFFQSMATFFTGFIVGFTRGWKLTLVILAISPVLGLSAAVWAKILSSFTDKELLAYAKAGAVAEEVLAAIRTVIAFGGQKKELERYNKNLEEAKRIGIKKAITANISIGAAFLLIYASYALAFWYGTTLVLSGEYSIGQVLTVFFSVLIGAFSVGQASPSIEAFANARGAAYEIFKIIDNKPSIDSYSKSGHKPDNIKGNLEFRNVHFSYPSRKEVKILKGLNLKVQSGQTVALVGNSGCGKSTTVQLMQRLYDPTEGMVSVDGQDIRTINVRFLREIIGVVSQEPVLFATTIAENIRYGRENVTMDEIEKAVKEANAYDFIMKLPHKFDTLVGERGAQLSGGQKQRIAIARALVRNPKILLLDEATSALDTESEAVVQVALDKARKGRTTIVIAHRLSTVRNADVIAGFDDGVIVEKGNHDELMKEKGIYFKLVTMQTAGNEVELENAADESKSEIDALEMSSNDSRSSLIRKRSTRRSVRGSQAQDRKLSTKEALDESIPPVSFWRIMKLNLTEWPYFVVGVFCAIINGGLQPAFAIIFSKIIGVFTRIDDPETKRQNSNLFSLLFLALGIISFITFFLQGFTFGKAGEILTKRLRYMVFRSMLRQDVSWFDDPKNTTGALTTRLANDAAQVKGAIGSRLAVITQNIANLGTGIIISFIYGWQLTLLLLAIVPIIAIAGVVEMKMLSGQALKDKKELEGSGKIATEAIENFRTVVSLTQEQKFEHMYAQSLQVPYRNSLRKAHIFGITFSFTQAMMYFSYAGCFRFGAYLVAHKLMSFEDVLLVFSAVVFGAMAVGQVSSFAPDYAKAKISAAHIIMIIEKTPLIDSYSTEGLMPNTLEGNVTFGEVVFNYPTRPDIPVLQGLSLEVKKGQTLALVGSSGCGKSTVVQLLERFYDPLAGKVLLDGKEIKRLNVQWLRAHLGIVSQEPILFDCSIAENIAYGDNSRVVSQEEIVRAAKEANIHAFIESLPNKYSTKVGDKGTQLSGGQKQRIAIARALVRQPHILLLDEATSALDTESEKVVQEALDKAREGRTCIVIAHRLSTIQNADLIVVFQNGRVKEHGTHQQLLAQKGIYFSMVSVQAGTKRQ

[3] = system: anesthesia/surgery-induced delirium-like behavior in mice; test: Open Field Test after anesthesia/surgery; format: in vivo; settings: 40 mg/kg IP 30 minutes before anesthesia/surgery
Source text: as §1, §2
(§3) Behaviors Tests. […] We will perform the behavior tests in groups of 3 mice and finished them within 50 minutes, which mimics the certain features of clinical evaluation of delirium in patients.
Open Field Test. Specifically, the mouse will be gently placed in the center of an open field chamber (40×40×40 centimeters) under dim light and will be allowed to move freely for 5 minutes. The movement parameters of the mouse will be monitored and analyzed via a video camera connected to the Any-Maze animal tracking system software (Stoelting Co., Wood Dale, IL). The total distance moved (meters), the time (seconds) spent in the center of the open field, the freezing time (seconds) and the latency (the time in seconds for the mice to reach to the location at the first attempt) to the center of the open field will be recorded and analyzed. The floor of the open field will be cleaned with 70% ethanol solution between each test. […]

cytochrome P450 3A4 = settings: metabolic studies; cited from earlier work
[4] = system: anesthesia/surgery-induced cognitive impairment in mice; test: anesthesia/surgery-induced cognitive impairment in mice; format: in vivo; settings: 1.4% isoflurane and abdominal surgery
Source text: as §1
Mice Anesthesia for isoflurane-induced cognitive impairment experiment. 8 month-old C57BL/6J mice. Anesthesia: 1.4% isoflurane for two hours.
WS635 Treatment for isoflurane-induced cognitive impairment experiment. WS635 was dissolved in 10% DMSO plus corn oil. Each mouse received 26.4 mg/kg WS635 or same volume of vehicle (10% DMSO plus corn oil) at 30 minutes before the anesthesia. Then, the mice were tested in Fear Conditioning System at 48 hours and 7 days after the anesthesia.
WS635 Treatment. […]

hepatitis C virus (HCV) = settings: two-drug combination, in vitro; cited from earlier work
stimulated Jurkat cells = settings: compared with cyclosporine; cited from earlier work
[5] = system: hepatitis C virus (HCV) replication; settings: in vitro; cited from earlier work
calcineurin = settings: at concentrations up to 2 μM; cited from earlier work
[6] = system: stimulated human peripheral blood mononuclear cells; settings: compared with cyclosporine; cited from earlier work
[7] = system: anesthesia/surgery-induced delirium-like behavior in mice; test: Y Maze Test after anesthesia/surgery; format: in vivo; settings: 40 mg/kg IP 30 minutes before anesthesia/surgery
Source text: as §1, §2, §3
Y Maze Test. Specifically, the Y maze, made of gray polyvinylene, will be placed in a quiet and illuminated room. […]

cyclophilin A = cyclophilin A (Homo sapiens, UniProt P62937); settings: cited from earlier work
Sequence of cyclophilin A (P62937 whole entry, species assumed): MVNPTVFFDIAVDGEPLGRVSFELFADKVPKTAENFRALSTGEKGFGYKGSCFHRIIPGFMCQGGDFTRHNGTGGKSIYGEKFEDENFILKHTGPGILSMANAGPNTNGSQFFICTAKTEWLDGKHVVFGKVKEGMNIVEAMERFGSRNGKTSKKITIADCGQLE

cytochrome P450 2B6 = settings: metabolic studies; cited from earlier work
[8] = system: anesthesia/surgery-induced delirium-like behavior in mice; test: Buried Food Test after anesthesia/surgery; format: in vivo
Source text: as §1, §2, §3
Buried Food Test. Specifically, two days before the test, we will give each mouse 2 pieces of the sweetened cereal. […]

C/C=C/C[C@@H](C)[C@@H](O)[C@H]1C(=O)N[C@@H](CC)C(=O)N(C)[C@H](SCCN(C)C)C(=O)N(C)[C@@H](CC(C)(C)O)C(=O)N[C@@H](C(C)C)C(=O)N(C)[C@@H](CC(C)C)C(=O)N[C@@H](C)C(=O)N[C@H](C)C(=O)N(C)[C@@H](CC(C)C)C(=O)N(C)[C@@H](CC(C)C)C(=O)N(C)[C@@H](C(C)C)C(=O)N1C [WS635, (3 S,6 S,9S,12R,15 S,18 S,21 S,24S,27R,30S,33 S)-27-((2-(dimethylamino)ethyl)thio)-30-ethyl-33-((1R,2R,E)-1-hydroxy-2-methylhex-4-en-1-yl)-24-(2-hydroxy-2-methy 1propyl)-6,9,18-tri isobutyl-3,21-diisopropyl-1,4,7,10,12,15,19,25,28-nonamethyl-1,4,7,10,13,16,19,22,25,28,3 1-undecaazacyclotritriacontan-2,5,8,11,14,17,20,23,26,29,32-undecaone]
anesthesia/surgery-induced changes of delirium-like behaviors ([1]; 40 mg/kg): more effectively attenuate
anesthesia/surgery-induced delirium-like behavior (composite Z score) ([1]; FIG. 15): able to attenuate
blood and liver concentrations of parent drug versus 50% effective dose in replicon assay ([2]; in vivo, po): exceeded the 50% effective dose
oral bioavailability ([2]; multiple animal species): orally bioavailable
induction of cytochrome P450 1A2 (cytochrome P450 1A2): did not induce
P-glycoprotein inhibition (P-glycoprotein): weak inhibitor
P-glycoprotein substrate (P-glycoprotein): poor substrate
anesthesia/surgery-induced change of freezing time in the open field test [3]: can attenuate
anesthesia/surgery-induced decrease of time spent in the center of the open field [3]: can attenuate
anesthesia/surgery-induced increase of latency to the center in the open field test [3]: can attenuate
induction of cytochrome P450 3A4 (cytochrome P450 3A4): did not induce
anesthesia/surgery-induced cognitive impairment [4]: significantly attenuate
antiviral activity in combination with alpha interferon 2b (hepatitis C virus (HCV)): synergistic antiviral activity
antiviral activity in combination with ribavirin (hepatitis C virus (HCV)): additive antiviral activity
inhibition of interleukin-2 secretion (stimulated Jurkat cells): weaker inhibitor of interleukin-2 secretion than cyclosporine
suppression of hepatitis C virus (HCV) replication [5]: potent suppression
inhibition of calcineurin phosphatase activity (calcineurin): no detectable inhibition
inhibition of interleukin-2 secretion [6]: weaker inhibitor of interleukin-2 secretion than cyclosporine
anesthesia/surgery-induced decrease of duration in the novel arm in the Y maze test [7]: can attenuate
anesthesia/surgery-induced decrease of number of entries in the novel arm in the Y maze test [7]: can attenuate
inhibition of the peptidyl prolyl isomerase activity of cyclophilin A (cyclophilin A): nanomolar concentrations
induction of cytochrome P450 2B6 (cytochrome P450 2B6): did not induce
anesthesia/surgery-induced increase of latency to eat food in the buried food test ([8]; 40 mg/kg IP 30 minutes before anesthesia/surgery, 18-month-old C57BL/J6 female mice): can attenuate
anesthesia/surgery-induced changes in Buried Food Test, dose dependence ([8]; mice): dose-dependent manner
